Test results reported in patent US20230287044A1, “NOVEL ANTIBACTERIAL PEPTIDE AND USE THEREOF” (priority 2020, published 2023).
Converted amounts (≈) assume the structure as drawn. Like-named read-outs stand apart in the source and are kept apart here. Square brackets hold non-standard residues; d marks the D form. Ends that are not written are not given here. Peptide text beside a SMILES is read from it.

What was measured:
[1] = test system: VRE (E. faecalis) ATCC 51575; type: cell-based, Enterococcus faecalis
Experimental: (§1) The minimum growth inhibitory concentrations of the antibacterial peptides of the present invention weremeasured, and the results are shown in Table 3 below.
(§2) Specifically, the strains were grown in CAMHB until the midlog phase, and then diluted with PBS buffer to 1× 10^6 cfu/ml to prepare the bacterial solution, and the antibacterial peptide prepared in Example 1above was diluted with CAMHB to 80 µM, 40 µM, 20 µM, 10 µM, 5 µM, 2.5 µM, 1.25 µM and 0.63 µM, and then the bacterial solution was treated with the same volume.
(§3) The results are the average value of three independent experiments.

[2] = test system: MRPA (P. aeruginosa) CCARM 2180; type: cell-based, Pseudomonas aeruginosa
Experimental: as §1, §2, §3

[3] = test system: MRAB (A. baumannii) ATCC BAA 1605; type: cell-based, Acinetobacter baumannii
Experimental: as §1, §2, §3

[4] = test system: MRSA (S. aureus) KCCM 40510; type: cell-based, Staphylococcus aureus
Experimental: as §1, §2, §3

[5] = CAMHB, 37° C., 18 hours, average of three experiments

| MIC VRE (E. faecalis) ATCC 51575 ([1]; ATCC 51575, 18 h) [µM] | MIC MRPA (P. aeruginosa) CCARM 2180 ([2]; CCARM 2180, 18 h) [µM] | MIC MRSA (S. aureus) KCCM 40510 ([4]; KCCM 40510, 18 h) [µM] | Molecule | other results |
| --- | --- | --- | --- | --- |
| >10 | >10 | >10 | CC[C@@H](C)[C@@H](NC(=O)[C@@H](Cc1c[nH]c2ccccc12)NC(=O)[C@@H](CCCNC(=N)N)NC(=O)[C@@H](CCCNC(=N)N)NC(=O)[C@H](N)CCCNC(=N)N)C(=O)N[C@H](Cc1c[nH]c2ccccc12)C(=O)N[C@H](C)C(=O)N[C@H](C)C(=O)N[C@H](Cc1c[nH]c2ccccc12)C(=O)N[C@H](CCCCN)C(N)=O [KSH74, rrrwiwaawk] (H-[dR][dR][dR][dW][dI][dW][dA][dA][dW][dK]-NH2; N-terminus assumed) | MIC MRAB (A. baumannii) ATCC BAA 1605 ([3]; ATCC BAA 1605, 18 h): 2.5 µM (≈ 3.57 µg/mL) |
| 1.25 (≈ 2.01 µg/mL) | 2.5 (≈ 4.03 µg/mL) | 1.25 (≈ 2.01 µg/mL) | CC[C@@H](C)[C@@H](NC(=O)[C@@H](Cc1c[nH]c2ccccc12)NC(=O)[C@@H](CCCNC(=N)N)NC(=O)[C@@H](CCCNC(=N)N)NC(=O)[C@H](N)CCCNC(=N)N)C(=O)N[C@H](Cc1c[nH]c2ccccc12)C(=O)N[C@@H](C(=O)N[C@H](CC(C)C)C(=O)N[C@H](Cc1c[nH]c2ccccc12)C(=O)N[C@H](CCCCN)C(=O)N[C@H](CC(N)=O)C(N)=O)C(C)C [KSH68, rrrwiwvlwkn] (H-[dR][dR][dR][dW][dI][dW][dV][dL][dW][dK][dN]-NH2; N-terminus assumed) | MIC MRAB (A. baumannii) ATCC BAA 1605 ([3]; ATCC BAA 1605, 18 h): 0.63 µM (≈ 1.02 µg/mL) |
| >10 | >10 | >10 | CC[C@@H](C)[C@@H](NC(=O)[C@@H](Cc1c[nH]c2ccccc12)NC(=O)[C@@H](C)NC(=O)[C@@H](C)NC(=O)[C@H](N)Cc1c[nH]c2ccccc12)C(=O)NCC(=O)N[C@H](CC(C)C)C(=O)N[C@H](CCCNC(=N)N)C(=O)N[C@H](CCCNC(=N)N)C(=O)N[C@H](CCCNC(=N)N)C(N)=O [KSH69, waawiglrrr] (H-[dW][dA][dA][dW][dI]G[dL][dR][dR][dR]-NH2; N-terminus assumed) | MIC MRAB (A. baumannii) ATCC BAA 1605 ([3]; ATCC BAA 1605, 18 h): 2.5 µM (≈ 3.21 µg/mL) |
| 0.63 (≈ 0.792 µg/mL) | >10 | 1.25 (≈ 1.57 µg/mL) | CC(C)[C@@H](NC(=O)[C@H](N)Cc1c[nH]c2ccccc12)C(=O)N[C@@H](C(=O)N[C@H](Cc1c[nH]c2ccccc12)C(=O)N[C@@H](C(=O)N[C@H](Cc1c[nH]c2ccccc12)C(=O)N[C@H](CCCCN)C(=O)N[C@H](CCCCN)C(=O)N[C@H](CCCCN)C(N)=O)C(C)C)C(C)C [KSH66, wvvwvwkkk] (H-[dW][dV][dV][dW][dV][dW][dK][dK][dK]-NH2; N-terminus assumed) | MIC MRAB (A. baumannii) ATCC BAA 1605 ([3]; ATCC BAA 1605, 18 h): 1.25 µM (≈ 1.57 µg/mL) |
| – | >40 | – | CC[C@@H](C)[C@@H](NC(=O)[C@@H](Cc1c[nH]c2ccccc12)NC(=O)[C@@H](CC(C)C)NC(=O)[C@H](N)CC(C)C)C(=O)N[C@H](C)C(=O)N[C@H](CC(C)C)C(=O)N[C@H](CCCCN)C(=O)N[C@H](CCCCN)C(=O)N[C@H](CCCCN)C(=O)N[C@H](CCCCN)C(N)=O [KSH12, llwialkkkk] (H-[dL][dL][dW][dI][dA][dL][dK][dK][dK][dK]-NH2; N-terminus assumed) | – |
| >40 | >40 | >40 | CC[C@@H](C)[C@@H](NC(=O)[C@@H](Cc1c[nH]c2ccccc12)NC(=O)[C@@H](C)NC(=O)[C@@H](C)NC(=O)[C@H](N)Cc1c[nH]c2ccccc12)C(=O)NCC(=O)N[C@H](CC(C)C)C(=O)N[C@H](CCCNC(=N)N)C(=O)N[C@H](CCCCN)C(=O)N[C@H](CCCCN)C(=O)N[C@H](CCCNC(=N)N)C(N)=O [KSH20, waawiglrkkr] (H-[dW][dA][dA][dW][dI]G[dL][dR][dK][dK][dR]-NH2; N-terminus assumed) | – |
| – | 40 (≈ 52.5 µg/mL) | – | CC[C@@H](C)[C@@H](NC(=O)[C@@H](Cc1c[nH]c2ccccc12)NC(=O)[C@@H](CC(C)C)NC(=O)[C@@H](CC(C)C)NC(=O)[C@H](N)Cc1c[nH]c2ccccc12)C(=O)NCC(=O)N[C@H](CC(C)C)C(=O)N[C@H](CCCNC(=N)N)C(=O)N[C@H](CCCCN)C(=O)N[C@H](CCCCN)C(N)=O [KSH8, wllwiglrkk] (H-[dW][dL][dL][dW][dI]G[dL][dR][dK][dK]-NH2; N-terminus assumed) | – |
| – | >40 | – | CC(C)C[C@@H](NC(=O)[C@H](N)Cc1c[nH]c2ccccc12)C(=O)N[C@@H](C(=O)N[C@H](Cc1c[nH]c2ccccc12)C(=O)N[C@H](CO)C(=O)N[C@H](Cc1c[nH]c2ccccc12)C(=O)N[C@H](CCCNC(=N)N)C(=O)N[C@H](CCCNC(=N)N)C(=O)N[C@H](CCCNC(=N)N)C(N)=O)C(C)C [KSH39, wlvwswrrr] (H-[dW][dL][dV][dW][dS][dW][dR][dR][dR]-NH2; N-terminus assumed) | – |

More lines, now with the values behind:

| Molecule | MIC VRE (E. faecalis) ATCC 51575 ([1]; ATCC 51575, 18 h) [µM] | MIC MRPA (P. aeruginosa) CCARM 2180 ([2]; CCARM 2180, 18 h) [µM] | MIC MRSA (S. aureus) KCCM 40510 ([4]; KCCM 40510, 18 h) [µM] | other results |
| --- | --- | --- | --- | --- |
| CC[C@@H](C)[C@@H](NC(=O)[C@@H](Cc1c[nH]c2ccccc12)NC(=O)[C@@H](CC(C)C)NC(=O)[C@H](N)CC(C)C)C(=O)NCC(=O)N[C@H](CC(C)C)C(=O)N[C@H](CCCNC(=N)N)C(=O)N[C@H](CCCCN)C(=O)N[C@H](CCCCN)C(=O)N[C@H](CCCNC(=N)N)C(N)=O [KSH13, llwiglrkkr] (H-[dL][dL][dW][dI]G[dL][dR][dK][dK][dR]-NH2; N-terminus assumed) | 40 (≈ 51.3 µg/mL) | >40 | 40 (≈ 51.3 µg/mL) | – |
| WLLWIALRKKR-NH2 [KSH1] | – | 40 | – | MIC VRE (E. faecalis) ATCC 51575 [1, 5]: 5 µM; MIC MRAB (A. baumannii) ATCC BAA 1605 [3, 5]: 5 µM; MIC MRSA (S. aureus) KCCM 40510 [4, 5]: 2.5 µM |
| CC[C@@H](C)[C@@H](NC(=O)[C@@H](Cc1c[nH]c2ccccc12)NC(=O)[C@@H](CCCNC(=N)N)NC(=O)[C@@H](CCCNC(=N)N)NC(=O)[C@H](N)CCCNC(=N)N)C(=O)N[C@H](Cc1c[nH]c2ccccc12)C(=O)N[C@@H](C(=O)N[C@@H](C(=O)N[C@H](Cc1c[nH]c2ccccc12)C(N)=O)[C@H](C)CC)[C@H](C)CC [KSH60, rrrwiwiiw] (H-[dR][dR][dR][dW][dI][dW][dI][dI][dW]-NH2; N-terminus assumed) | 0.63 (≈ 0.872 µg/mL) | – | – | – |
| CC(C)C[C@@H](NC(=O)[C@H](N)Cc1c[nH]c2ccccc12)C(=O)N[C@@H](C(=O)N[C@H](Cc1c[nH]c2ccccc12)C(=O)N[C@H](CCCCN)C(=O)N[C@H](Cc1c[nH]c2ccccc12)C(=O)N[C@H](CCCNC(=N)N)C(=O)N[C@H](CCCNC(=N)N)C(=O)N[C@H](CCCNC(=N)N)C(N)=O)C(C)C [KSH37, wlvwkwrrr] (H-[dW][dL][dV][dW][dK][dW][dR][dR][dR]-NH2; N-terminus assumed) | 5 (≈ 6.92 µg/mL) | 40 (≈ 55.4 µg/mL) | – | – |
| CC[C@@H](C)[C@@H](NC(=O)[C@H](N)Cc1c[nH]c2ccccc12)C(=O)N[C@@H](C(=O)N[C@H](Cc1c[nH]c2ccccc12)C(=O)N[C@@H](C(=O)N[C@H](Cc1c[nH]c2ccccc12)C(=O)N[C@H](CCCNC(=N)N)C(=O)N[C@H](CCCNC(=N)N)C(=O)N[C@H](CCCNC(=N)N)C(N)=O)[C@H](C)CC)[C@H](C)CC [KSH61, wiiwiwrrr] (H-[dW][dI][dI][dW][dI][dW][dR][dR][dR]-NH2; N-terminus assumed) | 0.63 (≈ 0.872 µg/mL) | – | – | – |
| CC[C@@H](C)[C@@H](NC(=O)[C@@H](Cc1c[nH]c2ccccc12)NC(=O)[C@@H](CC(C)C)NC(=O)[C@H](N)Cc1c[nH]c2ccccc12)C(=O)N[C@H](Cc1c[nH]c2ccccc12)C(=O)N[C@H](CCCNC(=N)N)C(=O)N[C@H](CCCNC(=N)N)C(=O)N[C@H](CCCNC(=N)N)C(N)=O [KSH41, wlwiwrrr] (H-[dW][dL][dW][dI][dW][dR][dR][dR]-NH2; N-terminus assumed) | – | – | 2.5 (≈ 3.18 µg/mL) | – |
| CC[C@H](C)[C@H](NC(=O)CN)C(=O)NCC(=O)N[C@@H](C)C(=O)N[C@H](C(=O)N[C@@H](CC(C)C)C(=O)N[C@@H](CCCCN)C(=O)N[C@H](C(=O)N[C@@H](CC(C)C)C(=O)N[C@H](C(=O)N[C@H](C(=O)NCC(=O)N[C@@H](CC(C)C)C(=O)N1CCC[C@H]1C(=O)N[C@@H](C)C(=O)N[C@@H](CC(C)C)C(=O)N[C@H](C(=O)N[C@@H](CO)C(=O)N[C@@H](Cc1c[nH]c2ccccc12)C(=O)N[C@H](C(=O)N[C@@H](CCCCN)C(=O)N[C@@H](CCCNC(=N)N)C(=O)N[C@@H](CCCCN)C(=O)N[C@@H](CCCNC(=N)N)C(=O)N[C@@H](CCC(N)=O)C(=O)N[C@@H](CCC(N)=O)C(N)=O)[C@@H](C)CC)[C@@H](C)CC)[C@@H](C)O)[C@@H](C)O)C(C)C)C(C)C [Melittin, reference compound] | – | – | – | MIC VRE (E. faecalis) ATCC 51575 [1, 5]: 1.25 µM (≈ 3.56 µg/mL); MIC MRPA (P. aeruginosa) CCARM 2180 [2, 5]: >40 µM; MIC MRAB (A. baumannii) ATCC BAA 1605 [3, 5]: 1.25 µM (≈ 3.56 µg/mL) |
